In US9486461B2, “Methods and compositions for inducing apoptosis by stimulating ER stress” (UNIVERSITY OF SOUTHERN CALIFORNIA, priority 2007, dated 2016):

Legend:
U251 glioblastoma cells [1] = experiment: Cell death ELISA, U251; format: cell-based, human; conditions: U251, 48 hours, concentrations of up to 100 μmol/L
Method: (§1) U251 glioblastoma cells were treated with different drugs, and various parameters of cell growth and cell death were comparatively analyzed. As controls, cells remained either non-treated (Co) or were treated with the solvent DMSO alone. (FIG. 8A) Cells were treated with 30 or 50 μM DMC for 48 hours and the effects on cell growth/survival and on cell death were determined by various assays. […] Below the three panels, the expression levels of the ER stress indicators CHOP, GRP78, and caspase 4 at the end of the 48 hour drug treatment is shown, as determined by Western blot analysis with specific antibodies (actin served as a loading control. (FIG. 8B) Cells were treated with various concentrations of different drugs for 48 hours, as indicated, and cell death was measured with the cell death ELISA kit. (FIG. 8C) Cells were treated with DMC or various coxibs and traditional NSAIDs for 48 hours, as indicated, and cell growth and survival was determined with the conventional MTT assay (control, non-treated cells were set at 100%). MTT assays were performed in 96-well plates with the use of 3.0-8.0×10^3 cells per well as described in detail elsewhere (34). In parallel, the expression levels of CHOP and GRP78 protein were determined by Western blot analysis.
Apoptosis in cell cultures in vitro was determined by using the Cell Death Detection ELISA kit (Roche Diagnostics, Indianapolis, Ind.) according to the manufacturer's instructions. This immunoassay specifically detects the histone region (H1, H2A, H2B, H3, and H4) of mononucleosomes and oligonucleosomes that are released during apoptosis. Ninety-six-well plates were seeded with 1,000 cells per well and read at 405 nm in a Microplate Autoreader (Model EL 311 SX; Bio-Tek Instruments, Inc., Winooski, Vt.).

U251 glioblastoma cells [2] = experiment: Colony forming assay, U251; format: cell-based, human; conditions: U251, 30 and 50 μmol/L, 48 hours
Method: as §1, with “MTT assays were performed in 96-well plates with the use of 3.0-8.0×10^3 cells per well as described in detail elsewhere (34).” left out
Twenty-four hours after transfection with small interfering RNA (siRNA), the cells were seeded into six-well plates at 200 cells per well. […] Colonies were visualized by staining for 4 h with 1% methylene blue (in methanol) and then counted.

[3] = test system: polyubiquitinated proteins in U251 cells; experiment: Western blot of polyubiquitinated proteins, U251; format: cell-based, human; conditions: U251, increasing concentrations, 24 hours
Method: Total cell lysates were analyzed by Western blot with specific antibodies to ubiquitin, GRP78, CHOP, and caspase 4. Actin was used as a loading control. […] Note that in the caspase 4 blots several non-specific background bands were observed (consistent with similar observations in the literature); the specific bands were identified with the use of various controls (not shown) and comparison to the literature.
Total cell lysates were prepared and analyzed by Western blot analysis as described earlier (19). Immunohistochemical analysis of protein expression in tumor tissues was performed with the use of the Vectastain avidin-biotin complex method kit (Vector Laboratories) as described previously (32). The primary antibodies were purchased from Cell Signaling Technology or Santa Cruz Biotechnology, Inc. and used according to the manufacturers' recommendations. All immunoblots and stainings were repeated at least once to confirm the results.

U87 glioblastoma tumors = experiment: Tumor growth in xenograft nude mouse model; format: in vivo, nude mice; conditions: daily chow for DMC, 40 mg/kg for rofecoxib, n=5
Method: Once palpable tumors had formed, the animals received daily chow supplemented with DMC, rofecoxib, or no drug. Tumor size was determined every three days. Shown is the average (mean±SD) tumor volume in each group (n=5). Asterisks (**): p<0.01 between control and DMC-treated animals on day 42.

[4] = test system: Tumor-associated Brain Endothelial Cells (TuBEC); experiment: Trypan blue exclusion, tumor-associated brain endothelial cells; format: cell-based; conditions: TMZ 300 uM and 20 uM DMC, 48 hours, then 12 days without drug
Method: After drug treatment the cells were incubated for another 12 days in the absence of drug, in order to determine their long-term survival; at that time cytotoxicity was evaluated using the trypan blue exclusion technique. Results are presented as number of viable cells per group.
Tumor-associated Brain Endothelial Cells (TuBEC) were treated with TMZ (300 uM) and 20 uM DMC for 48 hours. The drugs were removed and cells were incubated for another 12 days; at that time cytotoxicity was evaluated using the trypan blue exclusion technique. Results are presented as number of viable cells per group.

U251 glioblastoma cells [5] = experiment: TUNEL assay in cell culture, U251; format: cell-based, human; conditions: U251, 30 and 50 μmol/L, 48 hours
Method: as §1
We next investigated the relationship of ER stress induction and cell death. […]

SMILES	induction of cell death/apoptosis (cell death ELISA) (U251 glioblastoma cells [1])	survival in colony-forming assays (U251 glioblastoma cells [2])	accumulation of polyubiquitinated proteins [3]	tumor growth on longer-term therapy (U87 glioblastoma tumors)	susceptibility of tumor vascular endothelial cells to TMZ [4]	apoptosis (TUNEL) (U251 glioblastoma cells [5])
Cc1ccc(-c2cc(C(F)(F)F)nn2-c2ccc(S(N)(=O)=O)cc2)cc1 [celecoxib, 4-[5-(4-methylphenyl)-3-(trifluoromethyl)-1H-pyrazol-1-yl]benzenesulfonamide]	able to induce cell death/apoptosis					
Cc1ccc(C)c(-c2cc(C(F)(F)F)nn2-c2ccc(S(N)(=O)=O)cc2)c1 [DMC, 4-[5-(2,5-dimethylphenyl)-3-(trifluoromethyl)-1H-pyrazol-1-yl]benzenesulfonamide]		greatly reduced survival	did not cause substantial accumulation of polyubiquitinated proteins	significantly reduced tumor growth	increased the susceptibility	substantially increased apoptosis
